Source: patent US20240226342A1, “REACTIVE OXYGEN SPECIES IMAGING AGENTS” (Washington University, priority 2022, published 2024)
Entries after “also recorded” stand apart in the source; their conditions may differ. Read-outs that look alike come from different tables or passages of the source.

How the values were obtained:
[1] = test system: reactive oxygen species (superoxide, hydroxyl radical); assay: Detection of reactive oxygen species in vitro, fluorescence plate reader assay (G-GO, X-XO, SIN-1 systems); type: biochemical
Method: FIG. 3 is a bar graph showing evaluation of SLN128 for detection of reactive oxygen species in vitro in accordance with the present disclosure. Data are shown as mean fluorescence intensity (arbitrary units)±SD, where ****p<0.0001 values are determined by an unpaired student t-test. (Abbreviations: G: Glucose; GOX: Glucose oxidase; HRP: Horseradish peroxidase; X: Xanthine; XO: Xanthine oxidase; SOD: Superoxide Dismutase; CAT: Catalase. All values are normalized to fluorescence output of untreated SLN128 (control). Please note response to HRP induced hydroxyl radical in GGO system, its mitigation with CAT; and response to HX-XO (superoxide) and its intervention with SOD.
Of note, superoxide can originate from numerous sources in vivo, including the mitochondrial electron transport chain and NADPH oxidase(s), which are activated under conditions of inflammation, ischemia, and tissue injury. […] Therefore, the ability to detect elevated ROS in patients could provide a better understanding of relationships between ROS, tissue injury, and disease staging including information on signaling cascade that promote inflammation. To measure ROS production, various methods that use colorimetry, chemiluminescence, and fluorescence have been deployed, While xanthine-xanthine oxidase (X-XO) and SIN-1 have been used for production of superoxide and nitric oxide (wherein the combination produces peroxynitrite), respectively, the glucose-glucose oxidase (G-GO) system is useful for production of hydrogen peroxide. Employing concentrations of SLN128 and G-GO, and X-XO in vitro conditions described previously, the ability of SLN-128 or 12 to detect different reactive oxygen species at 37° C. in PBS was evaluated under physiological conditions (pH 7.2) and normalized by background fluorescence output of untreated SLN128 as a control using a fluorescence plate reader assay (see e.g., FIG. 3). […] Under both conditions, oxidation of the probe was neutralized by the addition of superoxide dismutase (SOD) (see e.g., FIG. 3). […] (see e.g., FIG. 3).

[2] = test system: microglial cells and neurons in brain sections; assay: Ex vivo fluorescence of brain sections after tail-vein injection of unlabeled SLN128 into 3-NP treated mice; type: in vivo; details: anti-IBA1 and anti-NeuN
Method: FIG. 11 includes images showing post PET/CT imaging in accordance with the present disclosure. SLN128 (100 μL; 1 mg/mL) was injected through tail-vein into 3NP-or saline treated mice, and brain tissue was processed as described in FIG. 10A-FIG. 10D.
Systemic administration of LPS induces oxidative stress and resulting a release of inflammatory cytokines, sustained microglial activation, and neuronal cell loss in brain areas, such as the hippocampus, cerebral cortex, substantia nigra, ventral tegmental area, and thalamus, alters the levels of neurotransmitters in adult animals, and cerebellum. Thus LPS-induced inflammation provides a useful rodent model for preclinical imaging of ^18F-SLN-128. […] Finally, the brain uptake (see e.g., FIG. 9C) derived from PET imaging also correlated with 60 min post imaging quantified uptake (see e.g., FIG. 9D) indicating potential of the radiotracer for imaging endotoxin mediated brain inflammation in vivo. Mitochondrial dysfunction is a major event in the pathogenesis of Huntington disease (HD). It has also been reported that systemic 3-NP administration leads to oxidized proteins in the striatum, as well as a massive loss of striatal neurons. To evaluate potential of ^18F-SLN-128 PET imaging for 3NP-induced ROS-mediated neurodegeneration in mice, PET/CT imaging was performed.

[3] = test system: human glioblastoma U87 cells; assay: Live-cell fluorescence imaging of cellular accumulation in U87 cells; type: cell-based; details: for intracellular localization: U87 cells, 100× objective, with mitotracker / mitoSOX
Method: FIG. 4 includes images showing cellular accumulation of SLN128 (20 nM) in human glioblastoma (U87) cells using live-cell fluorescence imaging: intracellular localization in accordance with the present disclosure. SLN128 was incubated at 37° C. for 1 h with either mitotracker red/or mitoSOX Deep Red in human U87MG cells. Images were acquired using a 100×objective.
FIG. 5 includes images showing cellular accumulation of SLN128 (20 nM) in human glioblastoma (U87) cells using live-cell fluorescence imaging in accordance with the present disclosure. SLN128 was incubated for 1 h either with media (control), LPS treated (1 μg/mL; 3 h) or 3-nitropropionic acid (3-NP; 10 μg/mL) human U87MG cells: Images were acquired using a 20×objective.
FIG. 6 is a bar graph showing cellular accumulation of SLN128 in either serum and glucose deprived- or LPS or 3 NP-treated U87 cells in either presence or absence of resveratrol (10 μM) in accordance with the present disclosure. Images were acquired using a 20×objective (all panels represent same magnification) in live human U87 cells. While U87 control cells were plated under normal conditions, both serum-and glucose-deprived (Starvation), and LPS/3-NP treated cells were allowed to recover in presence of resveratrol) for 24 h and treated with SLN-128(20 nM) for 60 min, cell uptake was evaluated via live-cell imaging, and quantified as described earlier. Corrected Total Cell Fluorescence (CTCF)=Integrated Density-(Area of selected cell X Mean fluorescence of background readings); (mean±SD), where **p<0.01 and […] are determined by an unpaired student t-test.
Lipopolysaccharide (LPS), is an endotoxin, released from Gram-negative bacteria. Next, the ability of SLN128 to detect either LPS or 3-Nitropropionic acid (3-NP) induced ROS in human cells was evaluated through live-cell fluorescence imaging. LPS is detected by toll-like receptor 4 (TLR4), a broadly expressed pattern recognition receptor found both on different cell types, including glial cells, and neurons. TLR4 engagement triggers the generation of mitochondrial superoxide from electron transport complex I, which in turn promotes bacterial killing. LPS treatment also triggers increased cytokine and chemokine expression in brain thus driving inflammation. […] To this end, intracellular localization of SLN-128 in either the presence or absence of mitotracker deep red (control) was simulataneously assessed in either the LPS or 3-NP stimulated human glioblastoma U87 cells (see e.g., FIG. 4). […] The probe uptake was quantified as corrected total cell fluorescence (CTCF) using image J as described earlier. […] Uptake in brain and other critical organs was analyzed in terms of percent injected dose per gram of the tissue (% ID/g).

[4] = Fluorescence emission of the probe before and after oxidation; type: physicochemical
[5] = normal mice, cited from earlier work
[6] = PBS with 1.0% ethanol, excited with a 402 nm laser

With `COc1ccc2c(c1)N(C)C(c1ccc(O)c(OCCF)c1)c1cccn1-2` (stereo not shown) [SLN128] the “reactive oxygen species detected” value [1] was “both superoxide and hydroxyl radical”, the “fluorescence response in G-GO system” value ([1]; 37° C., PBS pH 7.2) was “only a slight increase in fluorescence” and the “response to HRP in G-GO system (hydroxyl radical)” value ([1]; 37° C., PBS pH 7.2, normalized to untreated SLN128) was 10 fold. For the same compound, the detection of superoxide ([1]; xanthine oxidase/xanthine or SIN-1 with CPTIO, neutralized by SOD) was “ability to detect superoxide”, the “localization in brain sections ex vivo” value [2] was “localizes in microglial cells and neurons; also recorded: maps markers for microglial and neuronal cells” and the “fluorescence in LPS- or 3-NP stimulated cells compared to untreated U87 cells” value ([3]; LPS or 3-NP stimulation) was “higher fluorescence”. For the same compound, the intracellular localization [3] was “penetrates into mitochondria of U87 cells”, the intracellular localization ([3]; listed as SLN 128) was “maps both mitotracker and mitoSOX” and the “monitoring of therapeutic effect (CTCF)” value ([3]; presence or absence of resveratrol) was “ability to monitor resveratrol-induced mitigation of ROS”. The broad emission peak [4, 6] was 520-540 nm, the emission maximum [4, 6] was 530 nm and the “enhancement of mean fluorescence intensity following oxidation” value ([4]; following its oxidation) was 4 fold.
For `COCOc1ccc(-c2c3cccn3c3ccc(OC)cc3[n+]2C)cc1OCCF.[I-]` [compound 15], the “emission shift following oxidation” value ([4]; oxidized form) was 580 nm.
In the case of `CNc1ccc(/C=C/c2ccc(OCCOCCOCC[18F])nc2)cc1` [[^18F]-AVID-45, [^18F]-Florbetapir], the brain uptake ([5]; 2 min) is given as 7.33±1.54 % ID/g, the brain uptake ([5]; 2 h) is given as 1.80±0.07 % ID/g and the “brain uptake ratio 2 min/2 h” value [5] is given as 4.07.
For `CNc1ccc(/C=C/c2ccc(OCCOCCOCC[18F])cc2)cc1` [[^18F]-Florbetaben], the brain uptake ([5]; 2 min) is listed as 4.77 % ID/g, the brain uptake ([5]; 4 h) is listed as 0.95 % ID/g and the “brain uptake ratio 2 min/4 h” value [5] is listed as 5.0.
